Results published in article PMC10520017, “Discovery of Nedd4 auto-ubiquitination inhibitors” (Scientific Reports, 2023).
Where a chain is given by its changes, count along the chain named. pIC50: −log10 of the molar value. Where “and” joins values, the source holds several entries; their conditions need not be identical. Equal values may be shown once. Read-outs that look alike come from different tables or passages of the source.

Tests used:
Nedd4 [1] = test system: Nedd4; design: method as in PMID 27979631; conditions: cited from earlier work
Nedd4 [2] = target: T1, Nedd4 (Homo sapiens, UniProt P46934)
T1 sequence (P46934 1-900 isoform P46934-4): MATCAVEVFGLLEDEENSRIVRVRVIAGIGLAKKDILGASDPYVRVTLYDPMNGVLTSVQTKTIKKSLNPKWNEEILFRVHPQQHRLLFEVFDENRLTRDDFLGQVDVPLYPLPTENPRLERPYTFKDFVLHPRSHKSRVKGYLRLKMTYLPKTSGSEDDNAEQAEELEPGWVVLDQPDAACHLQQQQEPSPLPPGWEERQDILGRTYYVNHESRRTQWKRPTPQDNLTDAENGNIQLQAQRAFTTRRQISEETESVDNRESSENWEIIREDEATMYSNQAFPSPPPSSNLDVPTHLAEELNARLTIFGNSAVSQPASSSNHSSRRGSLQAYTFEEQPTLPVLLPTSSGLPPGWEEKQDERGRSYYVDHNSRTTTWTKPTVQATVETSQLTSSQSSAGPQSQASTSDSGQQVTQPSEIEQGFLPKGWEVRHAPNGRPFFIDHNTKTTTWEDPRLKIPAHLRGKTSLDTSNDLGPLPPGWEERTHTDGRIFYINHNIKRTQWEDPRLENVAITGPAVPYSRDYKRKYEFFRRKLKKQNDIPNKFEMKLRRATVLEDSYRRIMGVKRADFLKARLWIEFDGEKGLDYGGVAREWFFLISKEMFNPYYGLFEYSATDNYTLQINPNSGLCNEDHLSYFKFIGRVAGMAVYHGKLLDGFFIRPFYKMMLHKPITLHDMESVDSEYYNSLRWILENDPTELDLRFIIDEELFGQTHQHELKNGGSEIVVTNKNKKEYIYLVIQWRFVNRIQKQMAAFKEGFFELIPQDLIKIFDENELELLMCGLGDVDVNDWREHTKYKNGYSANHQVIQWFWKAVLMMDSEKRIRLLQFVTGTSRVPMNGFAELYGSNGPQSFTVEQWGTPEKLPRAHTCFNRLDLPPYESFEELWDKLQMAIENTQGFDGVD
Description: (§1) All time-resolved fluorescence resonance energy transfer (TR-FRET) auto-ubiquitination assays were performed in a final volume of 10 µL in PerkinElmer 384-well flat bottom white OptiPlate™ polystyrene microplates (PerkinElmer Cat. No. 6007290). […] A low concentration of NP-40 detergent (0.00063% v/v) was chosen for the Nedd4 auto-ubiquitination assay since this concentration yielded optimal terbium emission at 485 nm after 340 nm excitation (Supplementary Fig. 2). […] Reaction mixes containing all assay components except ATP-MgCl2 were preincubated with either library compounds dissolved in 1% DMSO or DMSO alone at RT for up to 2 h. To initiate the auto-ubiquitination reaction, 2 mM ATP-MgCl2 was added and incubated at 37 °C for 60–90 min. TR-FRET signal was measured in a Synergy 4 microplate reader (BioTek) using a 340/30 nm excitation filter and measuring the emission ratio using 485/20 nm and 528/20 nm emission filters. Fluorescence measurement was performed over a 400 µs window following a 100 µs delay post-excitation (Fig. 1).
(§2) All experiments were performed in triplicate (n = 3), and plotted values represent the average of three replicates with the standard deviation. TR-FRET signal refers to background values subtracted using control wells containing Tb-SA and Ub-FITC. Data were plotted using GraphPad 9.1.2 (GraphPad, La Jolla, CA) and fitted to a four-parameter sigmoidal dose–response curve. Where applicable, the dose–response was normalized and expressed as a percentage of auto-ubiquitination activity relative to the DMSO control.

Nedd4 [3] = target: T1, Nedd4; assay: biochemical
Description: as §1, §2

WWP2 = WWP2 (Homo sapiens, UniProt O00308); conditions: 200 µM
Description: (§3) All time-resolved fluorescence resonance energy transfer (TR-FRET) auto-ubiquitination assays were performed in a final volume of 10 µL in PerkinElmer 384-well flat bottom white OptiPlate™ polystyrene microplates (PerkinElmer Cat. No. 6007290). […] Concentrations of Ub activating (E1) and conjugating (E2) enzymes and fluorophores were selected to provide sufficient TR-FRET signal intensity for compound screening without excessive reagent consumption (Supplementary Fig. 3). Reaction mixes containing all assay components except ATP-MgCl2 were preincubated with either library compounds dissolved in 1% DMSO or DMSO alone at RT for up to 2 h. To initiate the auto-ubiquitination reaction, 2 mM ATP-MgCl2 was added and incubated at 37 °C for 60–90 min. TR-FRET signal was measured in a Synergy 4 microplate reader (BioTek) using a 340/30 nm excitation filter and measuring the emission ratio using 485/20 nm and 528/20 nm emission filters. Fluorescence measurement was performed over a 400 µs window following a 100 µs delay post-excitation (Fig. 1). Similarly, TR-FRET assays were used to measure the auto-ubiquitination activity of two other Nedd4 family HECT E3 ligases (WWP1 and WWP2) using alternative optimized buffer and fluorophore concentrations to test Nedd4 inhibitor specificity (Supplementary Table 2).
For selectivity assays, we used C-terminal His-tagged WWP1 and WWP2 bound to Tb-labelled […]

WWP1 = WWP1 (Homo sapiens, UniProt Q9H0M0); conditions: 200 µM
Description: as §3
For selectivity assays, we used C-terminal His-tagged WWP1 and WWP2 bound to Tb-labelled
anti-His-tag antibody and FITC-labelled ubiquitin.
Tb-SA 50 nM AntiHis-Tb 16.5 nM AntiHis-Tb 10 nM
NaCl 150 mM NaCl 0 mM NaCl 0 mM
TCEP 0.1 mM TCEP 0.1 mM TCEP 0.1 mM
DMSO 1 % DMSO 1 % DMSO 1 %
MgCl2 2 mM MgCl2 2 mM MgCl2 2 mM
ATP 2 mM ATP 2 mM ATP 2 mM

Nedd4 C627A + C867A = target: T2, Nedd4 C627A + C867A (Homo sapiens, UniProt P46934, C1046A/C1286A); assay: TR-FRET auto-ubiquitination assay of Nedd4 double mutant C627A + C867A; assay type: biochemical; conditions: 200 µM, 2 h at RT
T2 construct: full length C182A, C627A, C867A, and C627A + C867A mutants; made in house; host or cells: E. coli BL21 (D3)-BirA
T2 sequence (P46934 1-900 isoform P46934-4 C627A/C867A): T1 sequence (P46934 1-900 isoform P46934-4) with C627A, C867A
Description: (§4) All time-resolved fluorescence resonance energy transfer (TR-FRET) auto-ubiquitination assays were performed in a final volume of 10 µL in PerkinElmer 384-well flat bottom white OptiPlate™ polystyrene microplates (PerkinElmer Cat. No. 6007290). […] A low concentration of NP-40 detergent (0.00063% v/v) was chosen for the Nedd4 auto-ubiquitination assay since this concentration yielded optimal terbium emission at 485 nm after 340 nm excitation (Supplementary Fig. 2). Concentrations of Ub activating (E1) and conjugating (E2) enzymes and fluorophores were selected to provide sufficient TR-FRET signal intensity for compound screening without excessive reagent consumption (Supplementary Fig. 3). Reaction mixes containing all assay components except ATP-MgCl2 were preincubated with either library compounds dissolved in 1% DMSO or DMSO alone at RT for up to 2 h. […] TR-FRET signal was measured in a Synergy 4 microplate reader (BioTek) using a 340/30 nm excitation filter and measuring the emission ratio using 485/20 nm and 528/20 nm emission filters. Fluorescence measurement was performed over a 400 µs window following a 100 µs delay post-excitation (Fig. 1).
(§5) All assays were carried out in triplicate with the data representing the mean with standard deviation. […] Auto-ubiquitination reactions were allowed to proceed for 1 h at 37 °C and then read through the TR-FRET assay described in the methods.

Nedd4 C627A = target: T3, Nedd4 C627A (Homo sapiens, UniProt P46934, C1046A); assay: TR-FRET auto-ubiquitination assay of Nedd4 mutant C627A; assay type: biochemical; conditions: 2 h at RT, read-out: retention of uninhibited C627A activity
T3 construct: full length C182A, C627A, C867A, and C627A + C867A mutants; made in house; host or cells: E. coli BL21 (D3)-BirA
T3 sequence (P46934 1-900 isoform P46934-4 C627A): T1 sequence (P46934 1-900 isoform P46934-4) with C627A
Description: as §4, §5

Nedd4 C867A = target: T4, Nedd4 C867A (Homo sapiens, UniProt P46934, C1286A); assay: TR-FRET auto-ubiquitination assay of Nedd4 mutant C867A; assay type: biochemical; conditions: 200 µM, 2 h at RT
T4 construct: full length C182A, C627A, C867A, and C627A + C867A mutants; made in house; host or cells: E. coli BL21 (D3)-BirA
T4 sequence (P46934 1-900 isoform P46934-4 C867A): T1 sequence (P46934 1-900 isoform P46934-4) with C867A
Description: as §4, §5

Nedd4 [4] = target: T1, Nedd4; assay: Western blotting for ubiquitination and biotinylated Nedd4; assay type: biochemical; conditions: 50 and 100 µM, 2 h at RT
Description: The auto-ubiquitination reactions were initiated with the addition of 2 mM ATP-MgCl2. Another control reaction was performed without the addition of ATP-MgCl2 for comparison (negative control).

Nedd4 [5] = target: T1, Nedd4; assay: LC–MS/MS covalent adduction and site identification; assay type: binding; design: 30 µg of N-terminal His-tagged and C-terminal biotinylated Nedd4 (residue 1–900); made in house; host or cells: E. coli BL21 (D3)-BirA
Description: Samples were run on SDS-PAGE and stained with Coomassie Brilliant Blue R-250 (Thermo Fisher Scientific cat no. 20278). Gels were destained in water until the desired contrast was reached. The Nedd4 bands were cut and stored in 1% acetic acid at 4 °C until use. Samples were submitted to the SPARC Molecular Analysis Centre at the Hospital for Sick Children (Toronto, ON, CA) for LC–MS/MS analysis. Each gel band was cut into 3 pieces and digested with 0.8 µg pepsin, 0.6 µg trypsin and 0.6 µg chymotrypsin separately. The peptides obtained through the proteolytic digest were combined then lyophilized and resuspended in 0.1% formic acid. These samples were then subjected to MS/MS spectroscopy by an EASY-nLC 1200 nano-LC system + Thermo Scientific Orbitrap Fusion Lumos Tribrid mass spectrometer. MS data was analyzed using Scaffold PTM 4.0.1.

[6] = 200 µM compound, 3 h incubation

Sequence of WWP1 (Q9H0M0 349-922): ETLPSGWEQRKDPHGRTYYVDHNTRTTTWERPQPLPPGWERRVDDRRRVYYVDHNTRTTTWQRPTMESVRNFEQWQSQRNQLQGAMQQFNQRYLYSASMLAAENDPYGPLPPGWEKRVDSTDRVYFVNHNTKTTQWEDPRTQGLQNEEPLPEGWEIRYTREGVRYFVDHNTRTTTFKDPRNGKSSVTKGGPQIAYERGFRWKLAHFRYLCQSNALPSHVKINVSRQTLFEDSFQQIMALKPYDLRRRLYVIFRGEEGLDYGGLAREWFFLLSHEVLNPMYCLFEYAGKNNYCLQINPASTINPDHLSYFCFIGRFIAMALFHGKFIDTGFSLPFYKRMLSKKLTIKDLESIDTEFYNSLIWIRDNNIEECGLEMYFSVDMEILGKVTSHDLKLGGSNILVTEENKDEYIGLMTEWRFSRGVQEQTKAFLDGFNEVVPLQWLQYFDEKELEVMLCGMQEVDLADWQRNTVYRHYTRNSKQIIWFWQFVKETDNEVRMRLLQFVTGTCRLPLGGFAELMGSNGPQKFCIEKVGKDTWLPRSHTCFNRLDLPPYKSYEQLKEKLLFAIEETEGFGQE
Sequence of WWP2 (O00308 whole entry): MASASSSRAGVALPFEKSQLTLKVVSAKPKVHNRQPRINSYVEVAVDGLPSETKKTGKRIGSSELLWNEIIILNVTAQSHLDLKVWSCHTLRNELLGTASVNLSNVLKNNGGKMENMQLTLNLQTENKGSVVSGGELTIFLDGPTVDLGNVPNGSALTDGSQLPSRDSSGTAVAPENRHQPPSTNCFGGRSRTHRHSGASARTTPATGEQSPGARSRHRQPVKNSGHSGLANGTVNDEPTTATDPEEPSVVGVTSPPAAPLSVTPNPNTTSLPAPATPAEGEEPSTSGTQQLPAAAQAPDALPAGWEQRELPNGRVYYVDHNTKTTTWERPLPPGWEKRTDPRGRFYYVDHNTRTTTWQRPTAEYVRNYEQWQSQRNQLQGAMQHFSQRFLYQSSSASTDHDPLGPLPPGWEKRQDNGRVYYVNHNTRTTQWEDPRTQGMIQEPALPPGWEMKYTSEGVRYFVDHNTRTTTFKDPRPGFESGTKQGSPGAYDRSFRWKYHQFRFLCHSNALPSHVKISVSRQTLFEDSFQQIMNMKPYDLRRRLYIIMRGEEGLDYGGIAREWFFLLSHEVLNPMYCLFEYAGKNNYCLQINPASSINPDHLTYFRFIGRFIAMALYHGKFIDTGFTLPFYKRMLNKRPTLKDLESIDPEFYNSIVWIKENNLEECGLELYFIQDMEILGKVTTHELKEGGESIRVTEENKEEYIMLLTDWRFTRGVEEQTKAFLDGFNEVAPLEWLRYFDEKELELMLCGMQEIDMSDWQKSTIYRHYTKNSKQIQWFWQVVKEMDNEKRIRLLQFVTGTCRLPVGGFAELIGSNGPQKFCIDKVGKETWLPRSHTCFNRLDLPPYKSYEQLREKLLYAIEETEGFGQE

OCc1cn(Cc2ccccc2)c2ccccc12 [Compound 1-benzyl-I3C, 1-benzyl-I3C]
pIC50 (Nedd4 [1]; measured through an ELISA-based assay of Nedd4 activity): 4.91

OCc1c[nH]c2ccccc12 [Compound 5, Indole-3-carbinol, reference compound]
inhibition (Nedd4 [2]; 500 µM): 33% | pIC50 (Nedd4 [1]; previously reported): 3.55

Cn1cc(C(=O)CCl)c2ccccc21 [Compound 6]
pIC50 (Nedd4 [3]): 3.76 and 3.77

COC(=O)c1ccc2[nH]cc(C(=O)CCl)c2c1 [Compound 11]
pIC50 (Nedd4 [3]): 4.01 and 4.00

O=C(CCl)c1c[nH]c2ccncc12 [Compound 13]
inhibition (WWP2): 58% and 73% | inhibition (WWP1): 47% and 72%

Cc1cc(C(=O)CCl)c(C)n1-c1ccccc1 [Compound 20]
pIC50 (Nedd4 [3]): 3.61 and 3.62

COCCn1c(C)cc(C(=O)CCl)c1C [Compound 21]
pIC50 (Nedd4 [3]): 3.84 and 3.85

Cc1cc(C(=O)CCl)c(C)[nH]1 [Compound 23]
pIC50 (Nedd4 [3]): > 4.22 and 4.25 | inhibition (WWP1): ~25%

Cn1ccc(C(=O)CCl)c1 [Compound 24]
pIC50 (Nedd4 [3]): 3.94

O=C(CCl)c1c[nH]c2ccccc12 [Compound 25]
inhibition (WWP1): ~25%

Cc1cc(C(=O)CCl)c(C)n1CCC(C)C [Compound 29]
pIC50 (Nedd4 [3]): 4.06 and 4.05

Cc1cc(C(=O)C(C)Cl)c(C)n1Cc1ccco1 (centres unmarked) [Compound 36]
pIC50 (Nedd4 [3]): 3.95 and 3.96

O=C(CCl)c1ccccn1 [Compound 81]
change of C627A + C867A mutant activity on incubation with compound (Nedd4 C627A + C867A): No significant differences | activity at 200 µM (Nedd4 C627A): 30% | pIC50 (Nedd4 [3]): 4.51 and > 4.22 | inhibition (Nedd4 [2]; 200 µM): > 50% | change of C867A mutant activity on incubation with compound (Nedd4 C867A): No significant differences | effect on Nedd4 auto-ubiquitination by Western blot (Nedd4 [4]): complete loss of auto-ubiquitination | cysteine adduction sites confirmed by MS/MS (Nedd4 [5]; 200 µM compound, 3 h at RT): all three of the confirmed cysteine residues | Occurrence Among Observed Peptides, Cysteine Site C182 (Nedd4 [5]; [6]): 25/67 | Occurrence Among Observed Peptides, Cysteine Site C627 (Nedd4 [5]; [6]): 8/12 | Occurrence Among Observed Peptides, Cysteine Site C867 (Nedd4 [5]; [6]): 21/50 | Localization Probability of Compound 81 modification on cysteine (Cys627 peptide) (Nedd4 [5]; sheet "81 Mod Cys627", per peptide spectrum match, residues 639-657, C11 or C9 of the peptide): 100% and 72%, 0%, 100% and 100%, 100%
